Assay results: US10206944B2, “Chondroitin for use in medicine” (ALTERGON S.A., priority 2012, dated 2019)
Entries after “also recorded” stand apart in the source; their conditions may differ.

Tests used:
Wistar rats = assay: Study of fertility and reproductive capacity; format: in vivo, rat
Protocol: Study of fertility and reproductive capacity—The toxicology study of the possible effects of chondroitin on male fertility and female reproductive capacity was conducted on 200 Wistar rats (160 females and 40 males), randomised into four groups, each consisting of 40 females and 10 males, treated with 0, 50, 100 or 200 mg/Kg of chondroitin. Each group of female rats was divided in turn into two sub-groups of 20 animals; the first group received the product daily from the 14th day before the start of the mating period until the 19th day of gestation, and the second received it until the 21st day after the birth. All the males were treated with chondroitin for 60 days before mating and throughout the gestation period of the females. The protocol used follows the guidelines of Directive EEC 85/571.

Aggrecan = assay: Real-Time PCR gene expression in human chondrocytes: aggrecan; format: cell-based; settings: 1% w/v, ratio to untreated control
Protocol: To evaluate the biological effects of chondroitin on human chondrocyte cultures, the expression of a set of genes considered key to establishing the phenotype, and suitable markers for evaluating the quality of the tissue generated, was determined. The study was conducted on chondrocytes prepared from human cartilage, as reported in Example 2, the cells being grown in the presence of chondroitin or chondroitin sulphate. Using a standard procedure, 5*10^4 cells per well were seeded in a 24-well multiwell plate. The chondrocytes were grown in DMEM containing 1% w/v of chondroitin or chondroitin sulphate (endotoxin content ≤0.1 EU/mg). The cells were stimulated for 4, 7 and 10 days (Ishak et al., International J. of Pediatric Otorhinolaryngology, 2011, 75: 835-840), after which the RNA was extracted with Trizol Reagent, as described in the kit manual (Life Technologies Ltd, Milan, Italy). A qualitative morphological analysis of the cell culture was also conducted at the various times, in parallel with RNA extraction, by observing the corresponding samples at 4, 7 and 10 days under the optical microscope. The cells seeded at the three different times were observed under the microscope, and the images that best represented the cell growth conditions were acquired using a time-lapse videomicroscopy workstation. After RNA extraction, reverse transcription was performed with a total of 1 μg RNA and then with amplification by Real-Time PCR of genes which are specific markers for chondrocytes (Table 3).
Genes connected with matrix production, such as aggrecan, type I collagen, type II collagen and the Sox9 gene, the expression of which is closely correlated with the expression of type II collagen, were analysed as specific markers for differentiation and characterisation of chondrocytes. (Akiyama H., Mod Rheumatol., 2008, 18(3): 213-9; Yang et al., J. of Orthopaedic Res. 2011).
The gene expression of said markers on human chondrocytes cultured in basic medium (control) and with chondroitin treatment (C) or chondroitin sulphate treatment (CS) was analysed on cell cultures in the second and third growth phases.
The results of the gene expression analysis were reported as the average of at least 3 independent experiments for tests conducted in the presence of C or CS, on cells in phases 2 and 3.

[1] = system: primary cultures of human chondrocytes; assay: Chondrocyte proliferation test (time-lapse videomicroscopy); format: cell-based; settings: 1% w/v
From the text: Primary cultures of human chondrocytes isolated from healthy human cartilage samples obtained during rhinoplasty operations were used as model system. The tissue fragments just removed in the operating theatre were immersed in an 0.9% w/w NaCl saline solution and rapidly transferred to the laboratory for extraction of chondrocytes. Operating in sterile conditions under laminar-flow hood, the tissue sample was transferred to a petri dish where it was cut into small pieces using sterile tweezers and scalpels. The pieces of cartilage were then immersed in 0.01M phosphate buffer pH 7.4 (PBS) containing type 1 collagenase (3 mg/mL), dispase (4 mg/mL) and gentamicin (5 μL/mL of an 80 mg/mL solution) to ensure sterility during enzymatic digestion. The pieces were left to incubate overnight in a Falcon tube at 37° C., under stirring. After 16-18 h the solution was filtered through a 70 μm filter, transferring the parts adhering to the Falcon tube onto the filter and washing with 7-8 mL of DMEM 10% FBS. The filtrate was centrifuged at 1,500 rpm for 7 min, the supernatant was removed and the pellet was suspended in 10 mL of DMEM 10% FBS containing fungizone (5 μL/mL of an 80 mg/mL solution) and gentamicin (5 μL/mL of an 80 mg/mL solution). The cell suspension thus obtained was plated in a 25 cm^2 flask and incubated at 37° C. in a 5% CO2 atmosphere, with changes of medium every 2 or 3 days until complete confluency of the cell culture. The cells, which have the characteristic appearance of chondrocytes (small swollen cells with a slightly elongated shape), were detached from the base of the flask, counted and incubated again in fresh medium. Starting with 0.4 g of cartilage, about 2*10^6 cells were generally obtained in the second growth phase. Knowledge of the number of growth cycles to which the culture has previously been subjected is of crucial importance for primary cells; especially in the case of chondrocytes a cell differentiation process is observed wherein, as the growth phases proceed, the cells increasingly present an appearance morphologically similar to fibroblasts. For this reason the entire study is conducted with primary chondrocyte cultures at the 2nd-4th growth phase.
The effect of chondroitin on chondrocyte proliferation was evaluated with time-lapse videomicroscopy, as described in Example 1. The study was performed comparatively with chondrocytes stimulated with chondroitin sulphate, using non-stimulated chondrocytes as control system. 20*10^3 cells were seeded per well of a 24-well multiwell plate. The cells were treated with chondroitin or chondroitin sulphate with an endotoxin content ≤0.1 EU/mg at a concentration of 1% w/v in DMEM 10% FBS; in the controls, the cells were seeded in DMEM 10% FBS. The experiments were conducted in triplicate and analysed for a total time ranging between 96 and 120 h. Image analysis, conducted with Image Pro-plus 5.1 analysis software, allowed a precise number of cells to be obtained with a manual count at times pre-set by the operator, in order to construct a growth curve over time. The data analysis indicates (Table 2) that the growth of the cells treated with chondroitin was better than that of the untreated cells and the cells treated with chondroitin sulphate.

[2] = system: 5 strains of Salmonella typhimurium; assay: Ames' test; format: cell-based; settings: up to 2.0 mg/plate, with and without metabolic activation
Protocol: The chondroitin mutagenicity studies were conducted on different mutagenicity and genotoxicity models in vitro and in vivo (Sirtori C., File CONDRAL®, Vol. IV—Reproductive Toxicity and Mutagenesis; Slater E. et al., Rapid detection of mutagens and carcinogens, Cancer Res. 1971, 31: 970-973).
In vitro test, Ames' test—The test was performed with and without metabolic activation on 5 strains of Salmonella typhimurium. Chondroitin was tested at concentrations of between 2.0 μg/plate and 2.0 mg/plate.

Row | Substance | effect on fertility of male rats (Wistar rats; daily oral administration for 60 days, up to 200 mg/Kg) | effect on reproductive capacity of females (Wistar rats; daily up to 200 mg/Kg, 15 days before mating to 21st day of lactation) | Fold Expression, Aggrecan (Aggrecan; phase II, 4 g) | Fold Expression, Aggrecan (Aggrecan; phase II, 7 g) | Fold Expression, Aggrecan (Aggrecan; phase II, 10 g) | Fold Expression, Aggrecan (Aggrecan; phase III, 4 g) | Fold Expression, Aggrecan (Aggrecan; phase III, 7 g) | Fold Expression, Aggrecan (Aggrecan; phase III, 10 g) | Number of chondrocytes ([1]; time 0 h) | Number of chondrocytes ([1]; time 20 h) | Number of chondrocytes ([1]; time 40 h) | Number of chondrocytes ([1]; time 60 h) | Number of chondrocytes ([1]; time 80 h) | Number of chondrocytes ([1]; time 100 h) | point-reverse mutation (Ames' test) [2]
1 | chondroitin | no effect on the fertility of male rats; also recorded: the dose of 200 mg/Kg, has no effect on the fertility of male | no effect on the reproductive capacity of females; also recorded: no effect on the reproductive capacity of the females | 0.08 ± 0.02 | 1.66±0.22 | 1.07 ± 0.15 | 0.16 ± 0.08 | 0.79 ± 0.2 | 2.3 ± 1.0 | 7.0 ± 0.7 Cells × 10^4 | 10.2 ± 0.9 Cells × 10^4 | 15.3 ± 1.3 Cells × 10^4 | 22.0 ± 1.8 Cells × 10^4 | 27.0 ± 2.0 Cells × 10^4 | 32.0 ± 2.1 Cells × 10^4 | do not induce a specific point-reverse mutation; also recorded: Up to 2.0 mg/plate: no point-reverse mutation
2 | chondroitin sulphate [CS, reference compound] | – | – | 1.28 ± 0.75 | 0.72 ± 0.27 | 0.45 ± 0.19 | 0.17 ± 0.10 | 0.87 ± 0.20 | 0.59 ± 0.13 | 7.0 ± 0.5 Cells × 10^4 | 10.0 ± 1.2 Cells × 10^4 | 14.0 ± 1.8 Cells × 10^4 | 18.0 ± 1.6 Cells × 10^4 | 21.8 ± 1.7 Cells × 10^4 | 25.0 ± 2.5 Cells × 10^4 | –
